Literature values as cited in patent US20230201369A1 (THE TEXAS A&M UNIVERSITY SYSTEM, priority 2020, published 2023).

Conditions: estimated

Question: Which oral bioavailability does the source give for `C=CCN1CC[C@]23c4c5ccc(O)c4O[C@H]2C(=O)CC[C@@]3(O)[C@H]1C5` [naloxone, 17-Allyl-4,5α-epoxy-3,14-dihydroxymorphinan-6-one] here?
Answer: 0.9-2%
